Test results: patent US9920100B2, “Mimotopes of tropomyosin for use in immunotherapy for shellfish and/or arthropod allergy” (THE REGENTS OF THE UNIVERSITY OF CALIFORNIA, priority 2016, dated 2018)

Test system: Met e 1
Assay: ELISA of Met e 1-specific IgG1 and IgG2a in serum of BALB/c mice immunized with mimotope-KLH conjugates
Format: in vivo, Metapenaeus ensis
Conditions: KLH conjugate in BALB/c mice; compared with the Met e 1 epitope (a.a. 251-270) positive control
Experimental: One mimotope peptide was chosen from each of clusters 1-6 (Table 3) and commercially synthesized (Genscript). The mimotopes were conjugated to keyhole limpet hemocyanin (KLH) using Imject EDC mcKLH Spin Kit (Thermo Scientific) according to manufacturer's instructions. Female BALB/c mice (n=4; 5-6 weeks) were immunized subcutaneously with a mimotope conjugate (50 μg in 200 μl PBS) emulsified in Complete Freund's adjuvant on day 0 and Incomplete Freund's adjuvant on days 14 and 21. Blood samples were collected on day 28 from tail vein of the mice. A Der p 1 mimotope (KGIPNTKAP) (Szalai et al., Mot Immunol, 2008; 45, 1308-1317) and an IgE epitope of Met e 1 ([…]; a.a. 251-270) were also included as negative and positive controls, respectively. All animal protocols were approved by the Animal Experimentation Ethics Committee, CUHK, in accordance with the Department of Health (Government of Hong Kong Special Administrative Region, HKSAR) guidelines in Care and Use of Animals. All experiments were performed under licenses granted from the HKSAR Government.
ELISA was performed as previously described (Wai et al., PLoS One, 2014; 9, e111649) to detect Met e 1-specific IgG antibodies. […] 100 μl of 0.1M sulfuric acid was added to each well to stop the reaction after 10 min of incubation and the optical density at 450 nm was determined using microplate reader (BioRad Model 680). […]

Sequence: GTKLQHFRQ (Synthetic Cluster 4 mimotope) [Cluster 4 mimotope of Met e 1; selected for in vivo verification]
- capacity to induce Met e 1-specific antibodies: lower capacity
